In US20260083865A1, “PROSTATE SPECIFIC MEMBRANE ANTIGEN (PSMA) LIGANDS AND USE THEREOF” (priority 2022, published 2026):
Like-named read-outs stand apart in the source and are kept apart here. Numbered stars: 1 amine (or outer) side, 2 acyl side, 3 side chain; on linkers, the order of the positions; unused ones are H or OH. Bridge positions count the residues as written; N and C are the ends. Square brackets hold non-standard residues; d marks the D form. Peptide text beside a SMILES is read from it. * marks the point of attachment. X14 = NC(=O)[C@H](CCCCNC(=O)CCCC[C@@H]1SC[C@@H]2NC(=O)N[C@@H]21)NC(=O)CCC(=O)NCCCOCCOCCOCCCNC(=O)CCC(=O)NCCCOCCOCCOCCCN*; Acetyl(1-DOTA-4-piperidyl) = O=C(O)CN1CCN(CC(=O)O)CCN(CC(=O)N2CCC(CC(=O)*)CC2)CCN(CC(=O)O)CC1; DOTA = O=C(O)CN1CCN(CC(=O)O)CCN(CC(=O)*)CCN(CC(=O)O)CC1; Trp(5-Br) = N[C@@H](Cc1c[nH]c2ccc(Br)cc12)C(=O)O; Lys(Me3) = C[N+](C)(C)CCCC[C@H](N)C(=O)O; Phe(4-Cl) = N[C@@H](Cc1ccc(Cl)cc1)C(=O)O; Phe(2-Cl) = N[C@@H](Cc1ccccc1Cl)C(=O)O; Arg(Me) = CNC(=N)NCCC[C@H](N)C(=O)O; tBuAla = CC(C)(C)C[C@H](N)C(=O)O; 2Pal = N[C@@H](Cc1ccccn1)C(=O)O; X1 = O=C(CC1CCN([*:1])CC1)[*:2]; Cit = NC(=O)NCCC[C@H](N)C(=O)O; Lys(Me) = CNCCCC[C@H](N)C(=O)O; Thr(ol) = C[C@@H](O)[C@H](N)CO; Tle = CC(C)(C)[C@H](N)C(=O)O; Deg = CCC(N)(CC)C(=O)O; Aib = CC(C)(N)C(=O)O; CO = O=C([*:1])[*:2]; βAla = NCCC(=O)O; NHBu = CCCCN*

Tests used:
[1] = target: T1, Fc-fusion protein of human PSMA (hPSMA-Fc) (Homo sapiens, UniProt Q04609); test: Surface plasmon resonance assay (Biacore T200, single cycle kinetic); assay type: binding; conditions: read-out: pKD CAT (converted)
T1 construct: purchased Acro Biosystems PSA-H5264
Procedure, shortened: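 hPSMA-Fc was captured (~1000 RU) on an Fc-binding-peptide CM5 chip, and compounds were run in single cycle kinetic mode at 25° C in HBST with 0.1% DMSO. Double-blank-corrected sensorgrams were fitted to a 1:1 Langmuir model to give KD, reported as pKD.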

[2] = target: T2, PSMA-expressing C4-2 cells (Homo sapiens, UniProt Q04609); test: FACS binding assay (competition with 50 nM PSM-0183); conditions: read-out: pIC50 [C4-2] CAT (converted)
T2 construct: PSMA-expressing C4-2 cells (ATCC, Cat. No. CRL-3314) were cultured in RPMI-1640; host or cells: C4-2 cells
Procedure, shortened: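 C4-2 cells were incubated 1 h at 4 °C with 50 nM AF488-labelled peptide PSM-0183 plus increasing test compound concentrations, then washed twice in ice-cold buffer. Median fluorescence in the AF488 channel was read by flow cytometry. IC50/pIC50 was derived by 4PL fitting of MFI versus concentration.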

[3] = pKD category for PSMA SPR activity assay, hPSMA-Fc, 25° C.
[4] = pIC50 category of FACS binding, C4-2 cells
[5] = SPR, hPSMA-Fc, single cycle kinetic, 25° C., category
[6] = FACS binding, C4-2 cells, competition with 50 nM PSM-0183, category

T1 sequence (Q04609 44-750 limits assumed): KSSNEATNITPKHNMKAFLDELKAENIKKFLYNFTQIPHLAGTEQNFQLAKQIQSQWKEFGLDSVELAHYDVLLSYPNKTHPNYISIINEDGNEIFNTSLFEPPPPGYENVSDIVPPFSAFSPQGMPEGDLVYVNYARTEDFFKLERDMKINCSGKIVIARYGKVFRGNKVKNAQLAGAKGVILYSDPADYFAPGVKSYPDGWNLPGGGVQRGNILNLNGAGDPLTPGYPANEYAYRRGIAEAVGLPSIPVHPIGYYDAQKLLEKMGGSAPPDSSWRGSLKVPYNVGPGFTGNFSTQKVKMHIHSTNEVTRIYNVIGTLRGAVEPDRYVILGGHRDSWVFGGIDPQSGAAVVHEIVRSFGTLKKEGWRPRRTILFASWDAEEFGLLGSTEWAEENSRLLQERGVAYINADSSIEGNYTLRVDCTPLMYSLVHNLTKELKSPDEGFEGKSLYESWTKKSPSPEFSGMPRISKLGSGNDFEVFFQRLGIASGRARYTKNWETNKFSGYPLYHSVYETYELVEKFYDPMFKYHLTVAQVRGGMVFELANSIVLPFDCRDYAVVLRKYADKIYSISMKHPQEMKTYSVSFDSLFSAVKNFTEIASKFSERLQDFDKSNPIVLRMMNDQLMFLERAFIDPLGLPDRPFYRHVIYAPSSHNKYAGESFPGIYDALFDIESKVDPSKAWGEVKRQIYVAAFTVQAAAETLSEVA
T2 sequence (Q04609 whole entry): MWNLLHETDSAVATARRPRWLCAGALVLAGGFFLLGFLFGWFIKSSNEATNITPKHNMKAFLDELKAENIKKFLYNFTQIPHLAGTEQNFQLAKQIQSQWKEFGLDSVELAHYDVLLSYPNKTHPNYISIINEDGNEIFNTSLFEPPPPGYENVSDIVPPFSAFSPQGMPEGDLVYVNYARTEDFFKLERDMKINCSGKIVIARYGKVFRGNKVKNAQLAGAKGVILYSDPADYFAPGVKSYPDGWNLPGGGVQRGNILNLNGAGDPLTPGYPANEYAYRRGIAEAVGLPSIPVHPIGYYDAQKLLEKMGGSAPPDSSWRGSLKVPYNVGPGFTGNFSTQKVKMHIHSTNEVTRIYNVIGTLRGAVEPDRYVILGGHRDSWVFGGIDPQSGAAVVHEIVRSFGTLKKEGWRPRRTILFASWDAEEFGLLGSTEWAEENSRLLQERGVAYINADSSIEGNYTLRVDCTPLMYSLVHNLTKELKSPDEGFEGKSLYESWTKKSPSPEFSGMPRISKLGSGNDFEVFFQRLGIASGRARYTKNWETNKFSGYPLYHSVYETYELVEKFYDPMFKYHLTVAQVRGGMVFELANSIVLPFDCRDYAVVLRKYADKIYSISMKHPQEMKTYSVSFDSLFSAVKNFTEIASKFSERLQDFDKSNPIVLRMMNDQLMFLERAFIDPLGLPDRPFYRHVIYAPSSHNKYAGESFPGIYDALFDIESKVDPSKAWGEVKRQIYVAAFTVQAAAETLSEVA

SMILES	Kd [1, 3] [nM]	IC50 [2, 4] [nM]	Kd [1, 5] [nM]	IC50 [2, 6] [nM]	other results
CCCCNC(=O)N[C@H](C(=O)NC(C)(C)C(=O)N[C@@H](Cc1ccc(Cl)cc1)C(=O)N[C@H]1CSSC[C@@H](C(=O)N[C@H](C(=O)N[C@H](C(=O)N[C@H](CCCCNC(=O)CC2CCN(C(=O)CN3CCN(CC(=O)O)CCN(CC(=O)O)CCN(CC(=O)O)CC3)CC2)C(N)=O)[C@@H](C)O)C(C)(C)C)NC(=O)[C@H](CC(N)=O)NC(=O)C(C)(C)NC(=O)[C@H](CCCNC(=N)N)NC(=O)[C@H](CCCCN)NC1=O)[C@@H](C)O [PSM-0452, nBuCAyl-Thr-Aib-Pcf-[Cys-Lys-Arg-Aib-Asn-Cys]-Tle-Thr-lys (DOTA-Cmp)-NH2] ({NHBu-CO}-T[Aib][Phe(4-Cl)]CKR[Aib]NC[Tle]T[dK](Acetyl(1-DOTA-4-piperidyl))-NH2; disulfide 4-9)	< 12.6	< 200	–	–	–
CCC(CC)(NC(=O)[C@@H](NC(C)=O)[C@@H](C)O)C(=O)N[C@@H](Cc1ccccc1)C(=O)N[C@H]1CSSC[C@@H](C(=O)N[C@H](C(=O)N[C@H](C(N)=O)[C@@H](C)O)C(C)(C)C)NC(=O)[C@H](CC(N)=O)NC(=O)C(C)(C)NC(=O)[C@H](CCCNC(=N)N)NC(=O)[C@H](CCCCN)NC1=O [PSM-0187, Ac-Thr-Deg-Phe-[Cys-Lys-Arg-Aib-Asn-Cys]-Tle-Thr-NH2] (Ac-T[Deg]FCKR[Aib]NC[Tle]T-NH2; disulfide 4-9)	–	–	< 12.6	< 200	–
CC(=O)N[C@H](C(=O)NC(C)(C)C(=O)N[C@@H](Cc1ccccc1)C(=O)N[C@H]1CSSC[C@@H](C(=O)N[C@@H](CC(C)(C)C)C(N)=O)NC(=O)[C@H](CC(N)=O)NC(=O)C(C)(C)NC(=O)[C@H](CCCNC(=N)N)NC(=O)[C@H](CCCCN)NC1=O)[C@@H](C)O [PSM-0560, Ac-Thr-Aib-Phe-[Cys-Lys-Arg-Aib-Asn-Cys]-Npg-NH2] (Ac-T[Aib]FCKR[Aib]NC[tBuAla]-NH2; disulfide 4-9)	–	–	–	–	Kd ([1]; PSMA SPR assay, category): 12.6 to 126 nM; IC50 ([2]; FACS binding, C4-2 cells, category): < 200 nM
CNCCCC[C@@H]1NC(=O)[C@@H](NC(=O)[C@H](Cc2c[nH]c3ccc(Br)cc23)NC(=O)C(C)(C)NC(=O)[C@@H](NC(=O)CC2CCN(C(=O)CN3CCN(CC(=O)O)CCN(CC(=O)O)CCN(CC(=O)O)CC3)CC2)[C@@H](C)O)CSSC[C@@H](C(=O)N[C@H](C(=O)N[C@H](C(N)=O)[C@@H](C)O)C(C)(C)C)NC(=O)[C@H](CC(N)=O)NC(=O)C(C)(C)NC(=O)[C@H](CCCNC(=N)NC)NC1=O [PSM-0206, DOTA-Cmp-Thr-Aib-5Brw-[Cys-Lys(Me)-Arg(Me)-Aib-Asn-Cys]-Tle-Thr-NH2] ({DOTA}-[X1]T[Aib][Trp(5-Br)]C[Lys(Me)][Arg(Me)][Aib]NC[Tle]T-NH2; disulfide 5-10)	–	–	> 501	1260 to 3160	–
CC(=O)NC(C)(C)C(=O)N[C@@H](Cc1ccc(Cl)cc1)C(=O)N[C@H]1CSSC[C@@H](C(=O)N[C@H](C(=O)N[C@H](C(=O)N[C@H](CCCCNC(=O)CN2CCN(CC(=O)O)CCN(CC(=O)O)CCN(CC(=O)O)CC2)C(N)=O)[C@@H](C)O)C(C)(C)C)NC(=O)[C@H](CC(N)=O)NC(=O)C(C)(C)NC(=O)[C@H](CCCNC(=N)N)NC(=O)[C@H](CCCCN)NC1=O [PSM-0404, Ac-Aib-Pcf-[Cys-Lys-Arg-Aib-Asn-Cys]-Tle-Thr-lys(DOTA)-NH2] (Ac-[Aib][Phe(4-Cl)]CKR[Aib]NC[Tle]T[dK](DOTA)-NH2; disulfide 3-8)	< 12.6	< 200	–	–	–
CNC(=N)NCCC[C@@H]1NC(=O)[C@H](CCCC[N+](C)(C)C)NC(=O)[C@@H](NC(=O)[C@H](Cc2ccc(Cl)cc2)NC(=O)C(C)(C)NC(=O)[C@@H](NC(=O)CC2CCN(C(=O)CN3CCN(CC(=O)O)CCN(CC(=O)O)CCN(CC(=O)O)CC3)CC2)[C@@H](C)O)CSSC[C@@H](C(=O)N[C@H](C(=O)N[C@H](C(N)=O)[C@@H](C)O)C(C)(C)C)NC(=O)[C@H](CC(N)=O)NC(=O)C(C)(C)NC1=O [PSM-0483, DOTA-Cmp-Thr-Aib-Pcf-[Cys-KMe3-Arg(Me)-Aib-Asn-Cys]-Tle-Thr-NH2] ({DOTA}-[X1]T[Aib][Phe(4-Cl)]C[Lys(Me3)][Arg(Me)][Aib]NC[Tle]T-NH2; disulfide 5-10)	12.6 to 126	< 200	–	–	–
CCCC[C@H](NC(=O)[C@@H]1CSSC[C@H](NC(=O)[C@H](Cc2ccccc2)NC(=O)[C@@H](C)NC(=O)[C@@H](NC(C)=O)[C@@H](C)O)C(=O)N[C@@H](CCCCN)C(=O)N[C@@H](CCCNC(=N)N)C(=O)N[C@@H](C)C(=O)N[C@@H](CC(N)=O)C(=O)N1)C(=O)N[C@H](C(=O)N[C@@H](CC(=O)O)C(N)=O)[C@@H](C)O [PSM-0537, Ac-Thr-ala-Phe-[Cys-Lys-Arg-Ala-Asn-Cys]-Nlc-Thr-Asp-NH2]	> 501	1260 to 3160	–	–	–
CCCCNC(=O)N[C@H](C(=O)NC(C)(C)C(=O)N[C@@H](Cc1ccccc1)C(=O)N[C@H]1CSSC[C@@H](C(=O)N[C@H](C(=O)N[C@H](C(=O)N2CCC(CC(=O)N[C@H](CCCCNC(=O)CN3CCN(CC(=O)O)CCN(CC(=O)O)CCN(CC(=O)O)CC3)C(N)=O)CC2)[C@@H](C)O)C(C)(C)C)NC(=O)[C@H](CC(N)=O)NC(=O)C(C)(C)NC(=O)[C@H](CCCNC(N)=O)NC(=O)[C@H](CCCCN)NC1=O)[C@@H](C)O [PSM-0434, nBuCAyl-Thr-Aib-Phe-[Cys-Lys-Cit-Aib-Asn-Cys]-Tle-Thr-Cmp-lys(DOTA)-NH2] ({NHBu-CO}-T[Aib]FCK[Cit][Aib]NC[Tle]T[X1][dK](DOTA)-NH2; disulfide 4-9)	12.6 to 126	200 to 1260	–	–	–
CC(=O)N[C@H](C(=O)NC(C)(C)C(=O)N[C@@H](Cc1ccc(Cl)cc1)C(=O)N[C@H]1CSSC[C@@H](C(=O)N[C@H](C(=O)N[C@H](CO)[C@@H](C)O)C(C)(C)C)NC(=O)[C@H](CC(N)=O)NC(=O)C(C)(C)NC(=O)[C@H](CCCNC(=N)N)NC(=O)[C@H](CCCCN)NC1=O)[C@@H](C)O [PSM-0554, Ac-Thr-Aib-Pcf-[Cys-Lys-Arg-Aib-Asn-Cys]-Tle-Throl-OH] (Ac-T[Aib][Phe(4-Cl)]CKR[Aib]NC[Tle][Thr(ol)]; disulfide 4-9)	< 12.6	< 200	–	–	–
CC(=O)N[C@H](C(=O)NC(C)(C)C(=O)N[C@@H](Cc1ccccc1Cl)C(=O)N[C@H]1CSSC[C@@H](C(=O)N[C@H](C(=O)N[C@H](C(=O)N[C@@H](CC(=O)O)C(N)=O)[C@@H](C)O)C(C)(C)C)NC(=O)[C@H](CC(N)=O)NC(=O)C(C)(C)NC(=O)[C@H](CCCNC(=N)N)NC(=O)[C@H](CCCCN)NC1=O)[C@@H](C)O [PSM-0558, Ac-Thr-Aib-Ocf-[Cys-Lys-Arg-Aib-Asn-Cys]-Tle-Thr-Asp-NH2] (Ac-T[Aib][Phe(2-Cl)]CKR[Aib]NC[Tle]TD-NH2; disulfide 4-9)	12.6 to 126	< 200	–	–	–
CNCCCC[C@@H]1NC(=O)[C@@H](NC(=O)[C@H](Cc2ccccn2)NC(=O)C(C)(C)NC(=O)[C@@H](NC(=O)CC2CCN(C(=O)CN3CCN(CC(=O)O)CCN(CC(=O)O)CCN(CC(=O)O)CC3)CC2)[C@@H](C)O)CSSC[C@@H](C(=O)N[C@H](C(=O)N[C@H](C(N)=O)[C@@H](C)O)C(C)(C)C)NC(=O)[C@H](CC(N)=O)NC(=O)C(C)(C)NC(=O)[C@H](CCCNC(=N)NC)NC1=O [PSM-0257, DOTA-Cmp-Thr-Aib-Opa-[Cys-Lys(Me)-Arg(Me)-Aib-Asn-Cys]-Tle-Thr-NH2] ({DOTA}-[X1]T[Aib][2Pal]C[Lys(Me)][Arg(Me)][Aib]NC[Tle]T-NH2; disulfide 5-10)	–	–	12.6 to 126	200 to 1260	–
C[C@@H](O)[C@H](NC(=O)[C@@H](NC(=O)[C@@H]1CSSC[C@H](NC(=O)[C@H](Cc2ccc(Cl)cc2)NC(=O)C(C)(C)NC(=O)CCNC(=O)CN2CCN(CC(=O)O)CCN(CC(=O)O)CCN(CC(=O)O)CC2)C(=O)N[C@@H](CCCCN)C(=O)N[C@@H](CCCNC(=N)N)C(=O)NC(C)(C)C(=O)N[C@@H](CC(N)=O)C(=O)N1)C(C)(C)C)C(N)=O [PSM-0352, DOTA-Bal-Aib-Pcf-[Cys-Lys-Arg-Aib-Asn-Cys]-Tle-Thr-NH2] ({DOTA-βAla}-[Aib][Phe(4-Cl)]CKR[Aib]NC[Tle]T-NH2; disulfide 3-8)	–	–	–	–	Kd ([1]; PSMA SPR assay, hPSMA-Fc, 25° C., pKD category): < 12.6 nM; IC50 ([2]; FACS binding, PSMA-expressing C4-2 cells, pIC50 category): < 200 nM
C[C@@H](O)[C@H](NC(=O)CC1CCN(C(=O)CN2CCN(CC(=O)O)CCN(CC(=O)O)CCN(CC(=O)O)CC2)CC1)C(=O)NC(C)(C)C(=O)N[C@@H](Cc1ccc(Cl)cc1)C(=O)N[C@H]1CSSC[C@@H](C(=O)N[C@H](C(=O)N[C@H](C(=O)NCCCOCCOCCOCCCNC(=O)CCC(=O)NCCCOCCOCCOCCCNC(=O)CCC(=O)N[C@@H](CCCCNC(=O)CCCC[C@@H]2SC[C@@H]3NC(=O)N[C@@H]32)C(N)=O)[C@@H](C)O)C(C)(C)C)NC(=O)[C@H](CC(N)=O)NC(=O)C(C)(C)NC(=O)[C@H](CCCNC(=N)N)NC(=O)[C@H](CCCCN)NC1=O [PSM-0250, DOTA-Cmp-Thr-Aib-Pcf-[Cys-Lys-Arg-Aib-Asn-Cys]-Tle-Thr-Ttds-Ttds-Lys(Bio)-NH2] ({DOTA}-[X1]T[Aib][Phe(4-Cl)]CKR[Aib]NC[Tle]T-X14; disulfide 5-10)	–	–	< 12.6	200 to 1260	–
